The values below come from US8518945B2, “Pyrrolopyrazine kinase inhibitors” (Hoffmann-La Roche Inc., priority 2010, dated 2013).

For one series, the target named is T1, h-jak3(810-1124) (JAK3: Recombinant human kinase domain) (Homo sapiens, UniProt P52333).
T1 construct: jak3(810- 1124)-sf9-c; made in house; host or cells: Sf9
T1 sequence (P52333 810-1124): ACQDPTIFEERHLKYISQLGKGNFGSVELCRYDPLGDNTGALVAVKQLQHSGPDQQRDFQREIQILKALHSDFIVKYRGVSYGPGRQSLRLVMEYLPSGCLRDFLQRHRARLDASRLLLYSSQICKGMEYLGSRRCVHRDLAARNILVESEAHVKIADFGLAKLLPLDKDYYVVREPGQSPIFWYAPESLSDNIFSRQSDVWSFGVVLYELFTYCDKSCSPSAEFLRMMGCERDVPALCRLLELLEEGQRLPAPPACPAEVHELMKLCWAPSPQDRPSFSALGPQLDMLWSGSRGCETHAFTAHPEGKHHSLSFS
The experiment in a line: Determination of IC50 of Janus Kinase (JAK) inhibition: JAK3 radioactive end-point 33P-ATP kinase assay. The format is biochemical. To be noted: no additive; ATP 1.5 uM, peptide 50 uM, 20 minutes, room temperature; read-out: Ic50 h-jak3(810-1124)-sf9-c: no additive.
What is called IC50 is the point on the concentration scale where inhibition reaches its midpoint. Consider `Cc1nc(-c2cnc3[nH]cc(C(=O)N[C@@H](C(=O)N4CC(C#N)C4)C4CC4)c3n2)cn1CC(F)(F)F` [Example I-165, 2-[2-Methyl-1-(2,2,2-trifluoro-ethyl)-1H-imidazol-4-yl]-5H-pyrrolo[2,3-b]pyrazine-7-carboxylic acid [(R)-2-(3-cyano-azetidin-1-yl)-1-cyclopropyl-2-oxo-ethyl]-amide], for which the IC50 came out at 0.68 nM.

System in a further series: not given
Assay: not given
Details: not given
One may read the melting point as the temperature of the solid-liquid transition. In the case of `CC(C)(C)[C@@H](NC(=O)c1c[nH]c2ncc(C3CC3)nc12)C(=O)N1CCC(C#N)CC1` [Example 11, 2-Cyclopropyl-5H-pyrrolo[2,3-b]pyrazine-7-carboxylic acid [(R)-1-(4-cyano-piperidine-1-carbonyl)-2,2-dimethyl-propyl]-amide], the melting point lay within 249 to 251 °C.
Same read-out and setting: the same measure for `CC(C)[C@@H](NC(=O)c1c[nH]c2ncc(C3CC3)nc12)C(=O)N1CCCC1` [Example 24, 2-Cyclopropyl-5H-pyrrolo[2,3-b]pyrazine-7-carboxylic acid [(R)-2-methyl-1-(pyrrolidine-1-carbonyl)-propyl]-amide]: 171 to 172.1 °C; for `N#CC1CN(C(=O)[C@H](NC(=O)c2c[nH]c3ncc(-c4ccc(C(F)(F)F)cc4)nc23)C2CC2)C1` [Example 142, 2-(4-Trifluoromethyl-phenyl)-5H-pyrrolo[2,3-b]pyrazine-7-carboxylic acid [(R)-2-(3-cyano-azetidin-1-yl)-1-cyclopropyl-2-oxo-ethyl]-amide]: 207 to 209 °C.
On the same count and under the same terms, the same measure for `CC(C)[C@@H](NC(=O)c1c[nH]c2ncc(C3CC3)nc12)C(=O)N1CCOCC1` [Example 27, 2-Cyclopropyl-5H-pyrrolo[2,3-b]pyrazine-7-carboxylic acid [(R)-2-methyl-1-(morpholine-4-carbonyl)-propyl]-amide]: 154 to 156 °C; for `Cc1nc(-c2cnc3[nH]cc(C(=O)N[C@@H](C(=O)N4CC(C#N)C4)C4CC4)c3n2)cn1CC(F)(F)F` [Example I-165, 2-[2-Methyl-1-(2,2,2-trifluoro-ethyl)-1H-imidazol-4-yl]-5H-pyrrolo[2,3-b]pyrazine-7-carboxylic acid [(R)-2-(3-cyano-azetidin-1-yl)-1-cyclopropyl-2-oxo-ethyl]-amide]: 255 to 256 °C.
Same read-out and setting: for `O=C(N[C@@H](C(=O)N1CCCC1)C1CC1)c1c[nH]c2ncc(C3CC3)nc12` [Example 25, 2-Cyclopropyl-5H-pyrrolo[2,3-b]pyrazine-7-carboxylic acid ((R)-1-cyclopropyl-2-oxo-2-pyrrolidin-1-yl-ethyl)-amide] the value was 254 to 256 °C.
On to `CC(C)[C@@H](NC(=O)c1c[nH]c2ncc(C3CC3)nc12)C(=O)N1CCCCC1` [Example 26, 2-Cyclopropyl-5H-pyrrolo[2,3-b]pyrazine-7-carboxylic acid [(R)-2-methyl-1-(piperidine-1-carbonyl)-propyl]-amide], for which the melting point lay within 183 to 185 °C.
Same read-out and setting: for `CN1CCN(c2ccc(-c3cnc4[nH]cc(C(=O)N[C@@H](C(=O)N5CC(C#N)C5)C5CC5)c4n3)cc2)CC1` [Example 144, 2-[4-(4-Methyl-piperazin-1-yl)-phenyl]-5H-pyrrolo[2,3-b]pyrazine-7-carboxylic acid [(R)-2-(3-cyano-azetidin-1-yl)-1-cyclopropyl-2-oxo-ethyl]-amide] the value was 178 to 185 °C; for `Cc1nc(-c2cnc3[nH]cc(C(=O)N[C@@H](C(=O)N4CC(C#N)C4)C4CC4)c3n2)cn1-c1ccccc1`, 175 to 179 °C; for `CCn1cc(-c2cnc3[nH]cc(C(=O)N[C@@H](C(=O)N4CCCC4)C4CC4)c3n2)cn1` [Example 4, 2-(1-Ethyl-1H-pyrazol-4-yl)-5H-pyrrolo[2,3-b]pyrazine-7-carboxylic acid ((R)-1-cyclopropyl-2-oxo-2-pyrrolidin-1-yl-ethyl)-amide], 210 to 212 °C.
Same read-out and setting: the same measure for `CN(C)c1ccc(-c2cnc3[nH]cc(C(=O)N[C@@H](C(=O)N4CC(C#N)C4)C4CC4)c3n2)cc1` [Example 146, 2-(4-Dimethylamino-phenyl)-5H-pyrrolo[2,3-b]pyrazine-7-carboxylic acid [(R)-2-(3-cyano-azetidin-1-yl)-1-cyclopropyl-2-oxo-ethyl]-amide]: 175 to 180 °C.
